Reference: ChEMBL document CHEMBL5053488, “Motobamide, an Antitrypanosomal Cyclic Peptide from a Leptolyngbya sp. Marine Cyanobacterium” (J Nat Prod, 2021)
Calls of active or inactive are those of the source. The rule behind the calls is not given here. Numbered stars: 1 amine (or outer) side, 2 acyl side, 3 side chain; on linkers, the order of the positions; unused ones are H or OH. Square brackets hold non-standard residues; d marks the D form. Peptide text beside a SMILES is read from it. X1 = CC(C)=CC[C@@]12C[C@@H](C(=O)[*:2])N([*:1])[C@@H]1Nc1ccccc12

How the values were obtained:
HeLa = assay: Growth inhibition of human HeLa cells at 10 uM incubated for 72 hrs by MTT assay; format: functional, cell-based
HL-60 = assay: Growth inhibition of human HL-60 cells at 10 uM incubated for 72 hrs by MTT assay; format: functional, cell-based
[1] = Ratio of IC50 for cytotoxicity against human WI-38 cells to IC50 for antitrypanosomal activity against Trypanosoma brucei rhodesiense IL-1501
WI-38 = assay: Cytotoxicity against human WI-38 cells assessed as cell growth inhibition measured after 72 hrs by MTT assay; format: cell-based; details: WI-38, 72 h
[2] = system: Trypanosoma brucei rhodesiense; assay: Antitrypanosomal activity against Trypanosoma brucei rhodesiense IL-1501 assessed as parasite growth inhibition incubated for 69 hrs by AlamarBlue assay; format: functional, organism-based; details: IL-1501, 69 h

IC50 [2]: 2.3 µM
Compound: CSCC[C@@H]1NC(=O)[C@@H]2CCCN2C(=O)[C@H](C(C)C)NC(=O)[C@@H]2CCCN2C(=O)[C@@H]2CCCN2C(=O)[C@H](CC(C)C)NC(=O)[C@@H]2C[C@@]3(CC=C(C)C)c4ccccc4N[C@H]3N2C(=O)[C@@H]2CCCN2C(=O)[C@H](C(C)C)NC(=O)[C@H](CC(C)C)NC1=O (cyclo(LPPVPMLVP[X1]))
growth inhibition (GI) (HeLa): inactive
growth inhibition (GI) (HL-60): inactive
Ratio IC50 [1]: >20
IC50 (WI-38): 55 µM
